Reference: ChEMBL document CHEMBL5154879, “Induction of Genes Implicated in Stress Response and Autophagy by a Novel Quinolin-8-yl-nicotinamide QN523 in Pancreatic Cancer” (J Med Chem, 2022)
pIC50: −log10 of the molar value. Calls of active or inactive are those of the source. No cut-off for these calls is given here.

Experiments:
Assay type in all cases: functional, cell-based
MIA PaCa-2 [1] = assay: Cytotoxicity against human MIA PaCa-2 cells assessed as inhibition of cell growth incubated for 72 hrs by MTT assay; conditions: MIA PaCa-2, 72 h
MIA PaCa-2 [2] = assay: Induction of autophagy in human MIA PaCa-2 cells assessed as accumulation of WIP11 marker gene expression at […] incubated for 72 hrs by Western blot analysis
MIA PaCa-2 [3] = assay: Induction of autophagy in human MIA PaCa-2 cells assessed as accumulation of GABARAPL1 marker gene expression at […] incubated for 72 hrs by Western blot analysis
MIA PaCa-2 [4] = assay: Induction of autophagy in human MIA PaCa-2 cells assessed as accumulation of LC3B marker gene expression at […] incubated for 72 hrs by Western blot analysis

CC1=C(CC(=O)O)c2cc(F)ccc2/C1=C\c1ccc([S+](C)[O-])cc1 (centres undefined) was tested, and the pIC50 (MIA PaCa-2 [1]) was 3.52, the Activity (MIA PaCa-2 [2]) was “Active” and the Activity (MIA PaCa-2 [3]) was “Active”. The Activity (MIA PaCa-2 [4]) was “Active”.
